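In this assay, cells in 96-well plates receive the compound at five concentrations for 48 hours. Endpoints are linearly interpolated between the surrounding concentrations. TGI denotes the concentration required for complete inhibition of growth.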

Drawing on PubChem BioAssay (NCI), this text covers TGI for twelve compounds.

Assay in all cases: NCI anticancer screen, dose series, 48 h
Test [1] has as its system 786-0 renal.
Test [2] deals with HCT-116 colon.
Test [3] deals with HL-60(TB) leukemia.
Test [4] concerns MDA-MB-231 breast.
Test [5] has as its system MDA-MB-435.
Test [6] deals with NCI-H23 lung.
Test [7] relates to OVCAR-4 ovarian.
Test [8] deals with SK-MEL-5 melanoma.
Test [9] deals with U251 CNS.
Test [10] deals with UACC-257 melanoma.
Test [11] relates to UACC-62 melanoma.

Consider `Cc1[nH]c(=O)nc(N/N=C/c2c3ccccc3c(Cl)c3ccccc23)c1C(=O)Nc1ccc(Cl)cc1`, for which the TGI in test [1] is more than 100 µM; in [2] it was more than 100 µM; in [3], 44.7 µM; in test [4], more than 100 µM; in test [5], more than 100 µM; in test [6], more than 100 µM. Further, the TGI in test [7], in [8], in [9], in test [10] and in [11] was more than 100 µM in each case.

`O=c1cc(NNc2ccccc2)[nH]c(=O)[nH]1`: the TGI in test [1] was 29.6 µM; in test [2], 32.6 µM; in test [3] it was 64.6 µM; in test [4], 29.3 µM; in test [5] it was 33.7 µM; in test [6], more than 100 µM. Moreover, the TGI was 29.5 µM in test [7]; more than 100 µM in [8]; 31.9 µM in test [9]; 31.7 µM in [10]; 28.5 µM in test [11].

Take `COc1ccc(N2C(=O)C3ON(Cc4ccc(CC(N)=O)cc4)C(c4c5ccccc5c(C)c5ccccc45)C3C2=O)cc1` (stereo not given): the TGI is more than 100 µM in test [1]; 56.9 µM in [2]; 51.2 µM in test [3]; more than 100 µM in [4]; more than 100 µM in [5]; more than 100 µM in test [6]. Further, the TGI was 96.5 µM in test [7], more than 100 µM in test [9], 46.5 µM in test [10] and more than 100 µM in test [11].

As to `CCC1c2[nH]c3ccccc3c2C[C@H]2C(=O)NC(C)C(=O)N12` (stereo not given in full), the TGI in test [1], in test [2], in [3], in [4], in test [5] and in test [6] was more than 100 µM throughout. The TGI in [7], in [8], in test [9], in [10] and in test [11] was more than 100 µM throughout.

In the case of `O=c1c(NCc2ccccc2)c(C2(c3ccccc3F)SCCCS2)c1=O`, the TGI in test [1], in test [2], in test [3], in test [4], in test [5] and in test [6] was more than 100 µM in each case. Moreover, the TGI in [7], in test [8], in [9], in test [10] and in [11] was more than 100 µM each time.

Take `COc1c(C(=O)/C(=N/Nc2ccc(C(=O)O)cc2)C(C)=O)c(O)cc2occc12`: the TGI in [1], in test [2], in test [3], in test [4], in test [5] and in test [6] was more than 100 µM in each case. Moreover, the TGI in test [8], in test [9], in test [10] and in test [11] was more than 100 µM throughout.

As for `CC(=O)C1=C(C)N(c2ccccc2)C2(O)C3=C(C(=O)c4ccccc4C3=O)C(O)=CC12Cl` (stereo not given), the TGI in test [1] is more than 100 µM; in [2], more than 100 µM; in [3], 49 µM; in [4], more than 100 µM; in test [5] it was 6.28 µM; in [6] it was 39.9 µM. Also, the TGI in [7] is 14.5 µM; in [8], 9.04 µM; in test [9] it was 50.1 µM; in test [10], 19.3 µM; in [11], 73.9 µM.

Turning to `COC(=O)c1ccc(OCCn2nnc(C(=O)NN)c2C(=O)NN)cc1`, the TGI in [1], in test [2], in [3], in [4], in test [5] and in test [6] was more than 100 µM in each case. Also, the TGI in test [7], in test [8], in [9] and in test [10] was more than 100 µM each time.

Take `O=C1C=C(NCCc2ccc(O)c([N+](=O)[O-])c2)C(=O)c2[nH]cnc21`: the TGI is more than 100 µM in test [1]; more than 100 µM in test [2]; 47.8 µM in test [3]; more than 100 µM in test [4]; 33.7 µM in test [5]; 45 µM in test [6]. Besides, the TGI in [8] is 30.3 µM; in [9], more than 100 µM; in [10], 38.7 µM; in test [11], 40.7 µM.

`N=c1oc2ccc3ccccc3c2cc1-c1nc2ccccc2c(=O)[nH]1`: the TGI is more than 100 µM in [1]; more than 100 µM in [2]; more than 100 µM in test [3]; 73.4 µM in [4]; more than 100 µM in test [5]; 67.2 µM in test [7]. Moreover, the TGI in [8] is more than 100 µM; in test [9] it was more than 100 µM; in [10] it was more than 100 µM; in test [11], 44.1 µM.

As for `CC1=NNC(=O)C1C1(C(=O)O)CC(c2c[nH]c3ccccc23)=NC(=S)N1` (stereo not given), the TGI in test [1] is more than 100 µM; in test [2], more than 100 µM; in test [3], 90.1 µM; in [4] it was 81.7 µM; in [5] it was more than 100 µM; in test [6] it was 56.8 µM. For the same compound, the TGI in [8] is 27.5 µM; in test [9], 69.8 µM; in test [10], more than 100 µM; in [11] it was more than 100 µM.

On to `O=C1OC(C(O)CO)C(C(O)CO)OC1=O` (stereo not given), for which the TGI in [1], in test [3], in [4], in test [5], in [6] and in test [7] was more than 10 µM in each case. The TGI in test [8], in test [9], in test [10] and in [11] was more than 10 µM in each case.
